Test [1] concerns T-cell. As to the kind of experiment: IL-2 secretion from T-cells stimulated with anti-CD3 antibody alone (Biological Example 2). It counts as cell-based, human. Particulars: T-cell, fold change over baseline, primary human total T-cells, read-out: IL-2 secretion Anti-CD3 stimulation; for fold induction at 1 µM: 1 μM Cbl-b inhibitor; for fold induction at 8 µM: 8 μM Cbl-b inhibitor. The source says:
(§1) Methods for experimentally determining increased T-cell activation, increased T-cell proliferation, decreased T-cell exhaustion, and/or decreased T-cell tolerance are well known in the art.
(§2) Modulation of activity of an immune cell, such as a T-cell, a B cell or a NK cell can be measured by determining a baseline value for a parameter of interest (e.g., cytokine secretion). […] A reference value then is obtained for T-cell activation after contacting or administering said Cbl-b inhibitor. The reference value is compared to the baseline value in order to determine the amount of T-cell activation due to contact or administration of the Cbl-b inhibitor or composition thereof. […] Immune cell activation can be assessed by measuring biological markers of activation such as increased cytokine secretion, increased cell surface expression of activation markers (e.g., cell surface markers), or increased phosphorylation of proteins in a downstream signaling pathway. The fold over baseline value that indicates immune cell activation can be determined for the parameter being tested and the conditions under which the immune cell were treated. For example, for measuring T-cell activation, a baseline value can be obtained from T-cells stimulated with anti-CD3 antibody in combination with anti-CD28 antibody, wherein the cells are not incubated with a Cbl-b inhibitor. […] A positive response for immune cell activation can then be determined by the obtained reference value.
(§3) In some embodiments, a baseline value can be obtained from T-cells stimulated with anti-CD3 antibody alone, wherein the cells are not incubated with a Cbl-b inhibitor. In some embodiments, a positive response for T-cell activation as measured by cytokine secretion (e.g., IL-2 secretion) by T-cells stimulated with anti-CD3 antibody alone in the presence of a Cbl-b inhibitor is at least 0.1-fold over the baseline value for cytokine secretion (e.g., IL-2 secretion) obtained from T-cells stimulated with anti-CD3 antibody alone in the absence of a Cbl-b inhibitor. In some embodiments, a positive response for T-cell activation as measured by surface marker expression (e.g., CD25 surface marker staining) by T-cells stimulated with anti-CD3 antibody alone in the presence of a Cbl-b inhibitor is at least 0.6-fold over the baseline value for surface marker expression (e.g., CD25 surface marker staining) obtained from T-cells stimulated with anti-CD3 antibody alone in the absence of a Cbl-b inhibitor.

Test [2] concerns T-cell. As to the kind of experiment: IL-2 secretion from T-cells co-stimulated with anti-CD3 and anti-CD28 antibody (Biological Example 2). It counts as cell-based, human. Particulars: Homo sapiens, T-cell, fold change over baseline, primary human total T-cells, read-out: IL-2 secretion Anti-CD3/Anti-CD28 stimulation; for fold induction at 0.3 µM: 0.3 μM Cbl-b inhibitor; for fold induction at 1 µM: 1 μM Cbl-b inhibitor; for fold induction at 4 µM: 4 μM Cbl-b inhibitor.
From the text: as §1
as §2, with “value. […]” for “value.”

Test [3] deals with T-cell. The test is described as follows: CD25 cell surface staining on T-cells co-stimulated with anti-CD3 and anti-CD28 antibody (Biological Example 2). The settings on record: Homo sapiens, T-cell, fold change over baseline, primary human total T-cells, read-out: CD25 staining Anti-CD3/Anti-CD28 stimulation; for fold induction at 0.3 µM: 0.3 μM Cbl-b inhibitor; for fold induction at 1 µM: 1 μM Cbl-b inhibitor; for fold induction at 4 µM: 4 μM Cbl-b inhibitor. Format: cell-based, human.
From the text: as §1
as §2, with “value. […]” for “value.”

In test [4] the target is T1, Cbl-b (Homo sapiens, UniProt Q13191). As to the kind of experiment: Cbl-b inhibition assay (Cbl-b activity assay, FRET, Biological Example 1; 100 mM NaCl, 60 nM Src kinase). It counts as biochemical. The settings on record: upper bound stated in text lists; read-out: IC50 values in the Cbl-b inhibition assay of Biological Example 1. The gist of the method:
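Steps: Src kinase phosphorylates N-terminal biotinylated Avi-tagged Cbl-b; phosphorylated Cbl-b binds Bodipy-fluorescein ubiquitin-loaded UbcH5B; streptavidin-terbium on Cbl-b sits close to the fluorescein label, producing FRET. Inhibitors block UbcH5B-Ub binding.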

Test [5] deals with T-cell. As to the kind of experiment: CD25 cell surface staining on T-cells stimulated with anti-CD3 antibody alone (Biological Example 2). Format: cell-based, human. Particulars: T-cell, fold change over baseline, primary human total T-cells, read-out: CD25 staining Anti-CD3 stimulation; for fold induction at 1 µM: 1 μM Cbl-b inhibitor; for fold induction at 8 µM: 8 μM Cbl-b inhibitor.
From the text: as §1, §2, §3

In test [6] the target is T1, Cbl-b. The test is described as follows: Cbl-b activity assay (Cbl-b inhibition assay), TR-FRET of Cbl-b interaction with UbcH5B-Ub. It counts as biochemical. The settings on record: assay buffer with 100 mM NaCl, 60 nM Src kinase; read-out: Cbl-b activity IC50. An outline of the steps:
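Compound-treated Cbl-b was incubated 1.5 h with Src kinase (60 nM final; 30 nM for asterisked values, which also used 50 mM instead of 100 mM NaCl), 1 mM ATP and 5 mM MgCl2. Binding to fluorescent Ub-loaded UbcH5B (C85K mutant) was then read by TR-FRET after 1 h more.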
In general terms: In TR-FRET formats the signal depends on donor and acceptor labels being close together.

T1 sequence (Q13191 36-427): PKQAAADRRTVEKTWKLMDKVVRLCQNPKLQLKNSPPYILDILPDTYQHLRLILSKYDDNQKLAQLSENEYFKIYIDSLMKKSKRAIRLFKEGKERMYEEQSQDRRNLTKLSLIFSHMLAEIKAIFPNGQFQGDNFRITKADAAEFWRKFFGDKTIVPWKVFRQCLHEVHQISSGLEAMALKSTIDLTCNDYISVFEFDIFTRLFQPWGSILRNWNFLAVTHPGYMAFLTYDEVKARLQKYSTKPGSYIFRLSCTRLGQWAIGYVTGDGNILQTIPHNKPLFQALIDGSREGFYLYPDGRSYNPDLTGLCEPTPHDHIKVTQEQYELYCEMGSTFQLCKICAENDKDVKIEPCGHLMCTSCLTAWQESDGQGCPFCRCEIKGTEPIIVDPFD

Consider `CC(Sc1nncn1C)c1cccc(NC(=O)c2ccc3ccccc3n2)c1` (stereo not shown) [Compound 9, N-(3-(1-((4-Methyl-4H-1,2,4-triazol-3-yl)thio)ethyl)phenyl)quinoline-2-carboxamide], for which the fold induction at 1 µM in the test with T-cell [1] is under 0.05; with T-cell [2], 1.01 to 2.5; with T-cell [3], under 1; in the test on T-cell [5] it was under 0.6. The fold induction at 8 µM fell in the range of 0.051 to 0.1 in the test with T-cell [1] and 0.601 to 0.8 with T-cell [5]. Further, the fold induction at 0.3 µM with T-cell [2] was 1.01 to 2.5; with T-cell [3], under 1. Moreover, the values for the fold induction at 4 µM in the test on T-cell [2] and with T-cell [3] were 2.51 to 5 and 1.01 to 1.3, respectively. Besides, on Cbl-b [4], the IC50 was at most 1000 nM.
For the compound `C[C@H](Cc1nncn1C)c1cccc(NC(=O)c2cc3cccn3cn2)c1` [Compound 317, (R)-N-(3-(1-(4-Methyl-4H-1,2,4-triazol-3-yl)propan-2-yl)phenyl)pyrrolo[1,2-c]pyrimidine-3-carboxamide], in the test on T-cell [1], the fold induction at 1 µM is 0.051 to 0.1 and the fold induction at 8 µM lay within 0.101 to 0.15. Besides, in the test on T-cell [2], the fold induction at 0.3 µM was 1.01 to 2.5, the fold induction at 1 µM lay in the range of 1.01 to 2.5 and the fold induction at 4 µM fell in the range of 1.01 to 2.5. For the same compound, the half-maximal inhibitory concentration (IC50) at Cbl-b [6] lay in the range of 301 to 1000 nM. For the same compound, in the test on T-cell [3], the fold induction at 0.3 µM was in the range of 1.01 to 1.3, the fold induction at 1 µM lay within 1.01 to 1.3 and the fold induction at 4 µM lay in the range of 1.01 to 1.3. Besides, in the test on T-cell [5], the fold induction at 1 µM lay within 0.601 to 0.8 and the fold induction at 8 µM lay in the range of 0.801 to 1.
In the case of `C[C@H](Cc1nncn1C)c1cccc(NC(=O)c2cn3ccnc3cn2)c1` [Compound 318, (R)-N-(3-(1-(4-Methyl-4H-1,2,4-triazol-3-yl)propan-2-yl)phenyl)imidazo[1,2-a]pyrazine-6-carboxamide], in the test on T-cell [1], the fold induction at 1 µM is 0.051 to 0.1 and the fold induction at 8 µM is 0.101 to 0.15. In addition, in the test with T-cell [2], the fold induction at 0.3 µM lay in the range of 1.01 to 2.5, the fold induction at 1 µM fell in the range of 1.01 to 2.5 and the fold induction at 4 µM fell in the range of 1.01 to 2.5. For the same compound, the IC50 at Cbl-b [6] is 301 to 1000 nM. Also, in the test with T-cell [3], the fold induction at 0.3 µM was under 1, the fold induction at 1 µM was 1.01 to 1.3 and the fold induction at 4 µM was in the range of 1.01 to 1.3. Also, in the test on T-cell [5], the fold induction at 1 µM was in the range of 0.601 to 0.8 and the fold induction at 8 µM fell in the range of 0.801 to 1.
Take `C[C@@H](Cc1nncn1C)c1cccc(NC(=O)c2cc(C3CC3)cc(C(F)(F)F)n2)c1` [Compound 322, (S)-4-Cyclopropyl-N-(3-(1-(4-methyl-4H-1,2,4-triazol-3-yl)propan-2-yl)phenyl)-6-(trifluoromethyl)picolinamide]: in the test with T-cell [1], the fold induction at 1 µM is 0.051 to 0.1 and the fold induction at 8 µM was 0.101 to 0.15. Besides, in the test with T-cell [2], the fold induction at 0.3 µM lay within 1.01 to 2.5, the fold induction at 1 µM is 1.01 to 2.5 and the fold induction at 4 µM lay within 1.01 to 2.5. In addition, the half-inhibitory concentration (IC50) on Cbl-b [6] lay in the range of 301 to 1000 nM. Also, in the test with T-cell [3], the fold induction at 0.3 µM is 1.01 to 1.3, the fold induction at 1 µM is 1.01 to 1.3 and the fold induction at 4 µM lay in the range of 1.01 to 1.3. Further, in the test with T-cell [5], the fold induction at 1 µM was 0.601 to 0.8 and the fold induction at 8 µM lay in the range of 0.601 to 0.8.
In the case of `C[C@H](Cc1nncn1C)c1cccc(NC(=O)c2cnn3cccnc23)c1` [Compound 324, (R)-N-(3-(1-(4-Methyl-4H-1,2,4-triazol-3-yl)propan-2-yl)phenyl)pyrazolo[1,5-a]pyrimidine-3-carboxamide], in the test on T-cell [1], the fold induction at 1 µM lay in the range of 0.051 to 0.1 and the fold induction at 8 µM is 0.051 to 0.1. Also, in the test with T-cell [2], the fold induction at 0.3 µM was in the range of 1.01 to 2.5, the fold induction at 1 µM lay in the range of 1.01 to 2.5 and the fold induction at 4 µM was in the range of 1.01 to 2.5. In addition, the IC50 at Cbl-b [6] lay in the range of 301 to 1000 nM. In addition, in the test with T-cell [3], the fold induction at 0.3 µM is under 1, the fold induction at 1 µM is under 1 and the fold induction at 4 µM is 1.01 to 1.3. For the same compound, in the test on T-cell [5], the fold induction at 1 µM lay within 0.601 to 0.8 and the fold induction at 8 µM was in the range of 0.601 to 0.8.
In the case of `C[C@H](Cc1nncn1C)c1cc(NC2COC2)cc(N2Cc3c(cccc3C(F)(F)F)C2=O)c1` [Compound 350, 2-{3-[(2R)-1-(4-methyl-4H-1,2,4-triazol-3-yl)propan-2-yl]-5-[(oxetan-3-yl)amino]phenyl}-4-(trifluoromethyl)-2,3-dihydro-1H-isoindol-1-one], in the test on T-cell [1], the fold induction at 1 µM fell in the range of 0.051 to 0.1 and the fold induction at 8 µM fell in the range of 0.051 to 0.1. Besides, in the test on T-cell [2], the fold induction at 0.3 µM is under 1, the fold induction at 1 µM is 1.01 to 2.5 and the fold induction at 4 µM lay within 1.01 to 2.5. Further, the IC50 on Cbl-b [6] is 301 to 1000 nM. In addition, in the test with T-cell [3], the fold induction at 0.3 µM lay within 1.01 to 1.3, the fold induction at 1 µM was 1.01 to 1.3 and the fold induction at 4 µM lay within 1.01 to 1.3. Moreover, in the test on T-cell [5], the fold induction at 1 µM was 0.601 to 0.8 and the fold induction at 8 µM lay in the range of 0.801 to 1.
Take `CC1OCC1Oc1cc([C@H](C)Cc2nncn2C)cc(N2Cc3c(cccc3C(F)(F)F)C2=O)n1` (stereo partly drawn) [Compound 355, 2-(4-((R)-1-(4-methyl-4H-1,2,4-triazol-3-yl)propan-2-yl)-6-((2-methyloxetan-3-yl)oxy)pyridin-2-yl)-4-(trifluoromethyl)isoindolin-1-one]: in the test with T-cell [1], the fold induction at 1 µM is 0.051 to 0.1 and the fold induction at 8 µM fell in the range of 0.101 to 0.15. In addition, in the test with T-cell [2], the fold induction at 0.3 µM was in the range of 1.01 to 2.5, the fold induction at 1 µM was in the range of 1.01 to 2.5 and the fold induction at 4 µM is 1.01 to 2.5. In addition, the concentration for half-maximal inhibition (IC50) at Cbl-b [6] is 301 to 1000 nM. Moreover, in the test with T-cell [3], the fold induction at 0.3 µM lay within 1.01 to 1.3, the fold induction at 1 µM was in the range of 1.01 to 1.3 and the fold induction at 4 µM is 1.01 to 1.3. In addition, in the test on T-cell [5], the fold induction at 1 µM lay in the range of 0.601 to 0.8 and the fold induction at 8 µM fell in the range of 0.601 to 0.8.
Consider `C[C@H](Cc1nncn1C)c1cc(OCCO)nc(N2Cc3c(cccc3C(F)(F)F)C2=O)c1` [Compound 359, (R)-2-(6-(2-hydroxyethoxy)-4-(1-(4-methyl-4H-1,2,4-triazol-3-yl)propan-2-yl)pyridin-2-yl)-4-(trifluoromethyl)isoindolin-1-one], for which, in the test with T-cell [1], the fold induction at 1 µM was in the range of 0.051 to 0.1 and the fold induction at 8 µM is over 0.201. In the test on T-cell [2], the fold induction at 0.3 µM is 1.01 to 2.5, the fold induction at 1 µM lay in the range of 1.01 to 2.5 and the fold induction at 4 µM was 2.51 to 5. For the same compound, at Cbl-b [6], the concentration for half-maximal inhibition (IC50) was 301 to 1000 nM. In addition, in the test on T-cell [3], the fold induction at 0.3 µM was in the range of 1.01 to 1.3, the fold induction at 1 µM fell in the range of 1.01 to 1.3 and the fold induction at 4 µM fell in the range of 1.31 to 1.5. In the test on T-cell [5], the fold induction at 1 µM was in the range of 0.601 to 0.8 and the fold induction at 8 µM is over 1.

In general, IC50 refers to the midpoint of a concentration-inhibition curve.

The values above are taken from patent publication US20220324835A1 (Nurix Therapeutics, Inc., priority 2018, published 2022).
